Measurements: patent publication US5338758A (Schering Corporation, priority 1992, dated 1994)

What was measured:
[1] = system: PAF-Induced Human Platelet Aggregation; assay: PAF-induced human platelet aggregation assay (in vitro PAF antagonism); format: cell-based; conditions: for IC50: human platelet-rich plasma, 37° C., 2 min preincubation, PAF 1-5×10^-8 M, 0.1% DMSO, read-out: IC50 (PAF activity, inhibition of PAF-induced human platelet aggregation)
Protocol: Preparation of Platelet-Rich Plasma (PRP): Human blood (50 ml) is collected from healthy male donors. The blood is mixed with an anticoagulant solution (5 ml) containing sodium citrate (3.8%) and dextrose (2%). Blood is centrifuged at 200×g for 20 min. and the supernatant PRP is carefully transferred into a polypropylene tube. Platelet-poor-plasma (PPP) is prepared by centrifuging PRP at 800×g for 15 min. in a Beckman Microfuge B. PRP is used within 3 hours of drawing the blood.
Platelet Aggregation Assay: When an aggregating agent such as PAF is added to PRP, platelets aggregate. An aggregometer quantifies this aggregation by measuring light (infra-red) transmission through PRP and comparing it to transmission through PPP. The aggregation assays are performed using a dual-channel aggregometer (Model 440, Chrono-Log Corp., Havertown, Pa.). PRP (0.45 ml) in aggregometer curettes is continually stirred (37° C.). Solutions of test compounds in DMSO or vehicle alone (final concentration of DMSO=0.1% v/v) are added to the PRP, and, after incubation for 2 min., 10- 15 μl aliquots of PAF solution are added so as to achieve a final concentration of 1-5×10^-8 M. Incubations are continued until the increase in light transmission reaches a maximum (usually about 2 min). Values for inhibition are calculated by comparing maximal aggregation obtained in the absence and the presence of the compound. […]

Solubility = format: physicochemical
PAF = conditions: disclosed in JP 03,216,197; cited from earlier work

| Structure (SMILES) | PAF antagonistic properties (in words) [1] | IC50 [1] [nM] | solubility in acetone (Solubility) | solubility in chloroform (Solubility) | solubility in dichloromethane (Solubility) | solubility in dimethyl sulfoxide (Solubility) | solubility in ethyl acetate (Solubility) | solubility in hexane (Solubility) | solubility in methanol (Solubility) | solubility in petroleum ether (Solubility) | solubility in water (Solubility) | PAF antagonist activity (in words) (PAF) |
| --- | --- | --- | --- | --- | --- | --- | --- | --- | --- | --- | --- | --- |
| C/C1=C\CCC2(C)O[C@H]2C(=O)C2=CC[C@H](C)[C@@](C)(CC1)[C@@H]2C=O (relative stereo) [Compound I] | antagonistic properties | 6960 | partially soluble | soluble | soluble | soluble | partially soluble | insoluble | partially soluble | insoluble | insoluble |  |
| CC1=CCC2=CCC(C)C(C)(CCC(C)=CCC1)C2C (centres unmarked) [Compound IV] | antagonistic properties | > 36000 | soluble | soluble | soluble | partially soluble | partially soluble | partially soluble | partially soluble |  | insoluble |  |
| CC1=CCCC2(C)OC2C2(O)OCC3=C2C(O)CC(C)C3(C)CC1 (centres unmarked) [III] | antagonistic properties | 1260 | partially soluble | soluble | soluble | soluble | partially soluble | insoluble | partially soluble | insoluble | insoluble |  |
| CC1=CCCC2(C)OC2C2(O)OCC3C2=C(O)CC(C)C3(C)CC1 (centres unmarked) [II] | antagonistic properties | 1680 | partially soluble | soluble | soluble | soluble | partially soluble | insoluble | partially soluble | insoluble | insoluble |  |
| CC1=CCCC2(C)OC2C(=O)C2=CC(O)C(C)C(C)(CC1)C2(C)O (centres unmarked) [Phomactin B, phomactin B] |  |  |  |  |  |  |  |  |  |  |  | PAF antagonist |
